Here are results for one compound from PMC8552465 (ACS Omega, 2021).

“And” between values parts separate entries of the source, which are not always exact repeats. Equal values may be shown once. “Also recorded” adds a separate entry of the source.

Series [1] addresses T1, MAO-B (Homo sapiens, UniProt P27338).
T1 sequence (P27338 1-520): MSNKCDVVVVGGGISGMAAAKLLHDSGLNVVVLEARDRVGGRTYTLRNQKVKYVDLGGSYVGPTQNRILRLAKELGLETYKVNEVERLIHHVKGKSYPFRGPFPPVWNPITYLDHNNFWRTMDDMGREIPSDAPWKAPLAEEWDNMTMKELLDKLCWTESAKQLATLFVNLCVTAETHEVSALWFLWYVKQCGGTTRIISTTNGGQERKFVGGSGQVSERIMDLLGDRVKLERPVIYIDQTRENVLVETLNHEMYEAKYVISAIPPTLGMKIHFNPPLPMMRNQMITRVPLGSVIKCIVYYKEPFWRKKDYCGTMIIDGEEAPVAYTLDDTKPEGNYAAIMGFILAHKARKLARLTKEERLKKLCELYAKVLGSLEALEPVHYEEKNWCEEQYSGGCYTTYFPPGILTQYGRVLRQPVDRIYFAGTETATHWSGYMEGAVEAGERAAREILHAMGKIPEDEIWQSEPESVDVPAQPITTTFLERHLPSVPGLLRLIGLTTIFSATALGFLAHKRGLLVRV
Kind of series: Kinetics of MAO-B inhibition. It counts as biochemical.

In series [2] the target is T1, MAO-B. Kind of series: MAO-B inhibition assay. It counts as biochemical. The note with it: read-out: residual activity at 10 μM (%) MAO-B.
In series [3] the target is T2, BChE (Equus caballus, UniProt P81908). Kind of series: Reversibility of BChE inhibition by dialysis. It counts as biochemical, equine.
For series [4], the target named is T1, MAO-B. The series can be described thus: Reversibility of MAO-B inhibition by dialysis. It counts as biochemical.
Series [5] addresses T2, BChE. Kind of series: BChE inhibition assay. It counts as biochemical, equine.
The test system of another series is Vero cells. Kind of series: In vitro toxicity by MTT on Vero cells.
Series [6] is described as follows: In vitro toxicity by MTT on Vero cells. The note with it: African green monkey, Vero cells (African green monkey kidney epithelial cells), Vero cell viability, up to 100 μg/mL, 48 h, MTT.
Series [7] has as its target T2, BChE. Kind of series: Kinetics of BChE inhibition. It counts as biochemical, equine.
A further series has as its target AChE (Electrophorus electricus, UniProt O42275). Kind of series: AChE inhibition assay. It counts as biochemical.
For the next series, the target named is BACE-1 (Homo sapiens, UniProt P56817). The series can be described thus: BACE-1 activity detection kit. It counts as biochemical. The note with it: read-out: residual activity at 10 μM (%) BACE-1.
The next series addresses T3, recombinant human MAO-A (Homo sapiens, UniProt P21397).
T3 sequence (P21397 1-527): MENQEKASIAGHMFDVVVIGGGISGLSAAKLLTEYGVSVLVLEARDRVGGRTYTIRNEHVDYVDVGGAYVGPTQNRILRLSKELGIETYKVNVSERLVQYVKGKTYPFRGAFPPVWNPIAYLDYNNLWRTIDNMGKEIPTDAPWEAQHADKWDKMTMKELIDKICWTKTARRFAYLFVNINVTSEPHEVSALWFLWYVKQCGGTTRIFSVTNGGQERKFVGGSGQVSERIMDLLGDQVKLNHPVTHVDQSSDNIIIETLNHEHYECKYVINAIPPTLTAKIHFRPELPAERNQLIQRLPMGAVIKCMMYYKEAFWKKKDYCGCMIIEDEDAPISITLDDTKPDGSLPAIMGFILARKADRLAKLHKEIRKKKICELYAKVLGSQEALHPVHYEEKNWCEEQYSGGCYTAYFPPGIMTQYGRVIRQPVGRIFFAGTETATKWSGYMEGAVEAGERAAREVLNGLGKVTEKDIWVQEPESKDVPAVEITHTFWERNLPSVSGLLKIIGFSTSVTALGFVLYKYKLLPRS
Kind of series: MAO-A inhibition assay. It counts as biochemical.

The mark [8] stands for this setting: Lineweaver–Burk and secondary plots.

T2 sequence (P81908 whole entry): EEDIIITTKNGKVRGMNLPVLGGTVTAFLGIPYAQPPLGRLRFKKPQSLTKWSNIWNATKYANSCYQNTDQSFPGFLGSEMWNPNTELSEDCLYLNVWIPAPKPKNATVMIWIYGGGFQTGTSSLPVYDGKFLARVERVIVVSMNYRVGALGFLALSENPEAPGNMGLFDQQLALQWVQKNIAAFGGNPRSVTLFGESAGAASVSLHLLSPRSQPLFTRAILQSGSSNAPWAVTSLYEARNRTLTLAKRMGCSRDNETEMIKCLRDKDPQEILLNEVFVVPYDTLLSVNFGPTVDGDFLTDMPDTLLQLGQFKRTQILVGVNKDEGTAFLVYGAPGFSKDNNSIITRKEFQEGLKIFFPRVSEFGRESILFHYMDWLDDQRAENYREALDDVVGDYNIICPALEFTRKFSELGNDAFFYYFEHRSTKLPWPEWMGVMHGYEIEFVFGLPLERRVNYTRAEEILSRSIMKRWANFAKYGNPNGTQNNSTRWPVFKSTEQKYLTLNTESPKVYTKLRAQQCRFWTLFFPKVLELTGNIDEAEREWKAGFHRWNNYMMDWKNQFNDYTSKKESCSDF
AChE, sequence (O42275 24-633): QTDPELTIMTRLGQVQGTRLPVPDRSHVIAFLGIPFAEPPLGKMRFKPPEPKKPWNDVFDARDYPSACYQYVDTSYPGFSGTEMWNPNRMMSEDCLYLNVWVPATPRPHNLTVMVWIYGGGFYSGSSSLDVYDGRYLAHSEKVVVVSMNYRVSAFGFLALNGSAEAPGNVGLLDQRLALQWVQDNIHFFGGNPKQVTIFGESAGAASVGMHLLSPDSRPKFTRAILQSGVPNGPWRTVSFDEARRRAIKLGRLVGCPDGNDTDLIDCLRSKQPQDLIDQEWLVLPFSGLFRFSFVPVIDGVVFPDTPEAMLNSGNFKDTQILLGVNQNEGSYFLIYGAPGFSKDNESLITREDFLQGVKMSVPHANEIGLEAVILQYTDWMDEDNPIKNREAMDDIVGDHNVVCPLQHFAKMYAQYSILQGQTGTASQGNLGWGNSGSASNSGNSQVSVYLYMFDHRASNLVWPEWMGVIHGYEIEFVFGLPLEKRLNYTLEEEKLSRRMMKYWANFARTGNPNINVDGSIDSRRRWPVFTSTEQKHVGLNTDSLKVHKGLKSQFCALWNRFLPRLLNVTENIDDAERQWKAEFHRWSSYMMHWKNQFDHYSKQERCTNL
BACE-1, sequence (P56817 46-501): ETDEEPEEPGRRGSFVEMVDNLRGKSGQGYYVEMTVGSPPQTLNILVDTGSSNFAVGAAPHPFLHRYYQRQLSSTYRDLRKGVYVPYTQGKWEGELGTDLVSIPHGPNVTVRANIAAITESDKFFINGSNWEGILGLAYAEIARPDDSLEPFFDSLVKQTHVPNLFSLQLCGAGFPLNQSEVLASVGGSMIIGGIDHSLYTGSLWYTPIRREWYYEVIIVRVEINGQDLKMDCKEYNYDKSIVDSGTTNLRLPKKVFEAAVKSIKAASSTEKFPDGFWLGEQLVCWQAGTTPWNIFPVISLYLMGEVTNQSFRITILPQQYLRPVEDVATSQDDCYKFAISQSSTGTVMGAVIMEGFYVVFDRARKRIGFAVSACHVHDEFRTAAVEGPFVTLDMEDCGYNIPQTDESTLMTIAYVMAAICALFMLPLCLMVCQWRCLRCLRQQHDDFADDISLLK

On to `O=C(/C=C/c1ccccc1Cl)c1cc2ccccc2oc1=O` [CC2, 3-[(2E)-3-(2-chlorophenyl)prop-2-enoyl]-2H-1-benzopyran-2-one], for which the Ki at MAO-B [1] amounted to 0.53 ± 0.04 µM; at BChE [7], 2.84 ± 0.09 µM. Besides, the “type of MAO-B inhibition” value on MAO-B [1] (setting [8]) was “competitive”. Besides, the remaining activity at 10 µM is 19.8 ± 5.9% at MAO-B [2]; below 50% at BChE [5] (read-out: residual activity at 10 μM (%) BChE, 10 μM); 69.4 ± 3.6% on AChE (read-out: residual activity at 10 μM (%) AChE, 10 μM); 61.1 ± 1% at BACE-1; 76.6 ± 1.8% on recombinant human MAO-A (read-out: residual activity at 10 μM (%) MAO-A). The “reversibility of BChE inhibition” value on BChE [3] is given as “reversible”. For the same compound, the “reversibility of MAO-B inhibition” value on MAO-B [4] was “reversible”. The IC50 was 7 ± 0.02 µM against BChE [5]; 142 µg/mL and 456 µM in the series with Vero cells (Chlorocebus sabaeus, Vero, 48 h, read-out: IC50 Vero cell viability); 40.1 ± 0.12 µM on AChE (IC50 (μM) AChE, means ± standard errors, reference compounds after preincubation for 30 min with enzymes); above 40 µM on recombinant human MAO-A. Besides, the “residual activity at 10 μM (%) BChE” value at BChE [5] (10 μM) is on record as 43.9 ± 3.7%. In the series on Vero cells (up to 100 μg/mL, 48 h, MTT), this compound showed a Vero cell viability above 70%. For the same compound, the “toxicity for Vero cells” value in the series with Vero cells (up to a concentration of 100 μg/mL) is given as “nontoxic; also recorded: not toxic”. Further, the viability at 48 h, 100 μg/mL in series [6] is around 70%. Besides, the “type of BChE inhibition” value on BChE [7] (setting [8]) is given as “competitive”.

As a reminder, the Ki is the dissociation constant of the complex between target and ligand, obtained from inhibition or displacement. As a reminder, the IC50 is the point on the concentration scale where inhibition reaches its midpoint. For orientation: residual activity means the share of the control activity or signal that is left under treatment. One may read the viability as a read-out of living cells in per cent, often relative to untreated cells.
